According to publication PMC8286599 (Gut Pathogens, 2021):
Converted amounts (≈) assume the structure as drawn. Where two headings read alike, the source gives them in different places.

Legend:
[1] = system: Salmonella Typhimurium strains; assay type: cell-based; note: key: S- Sensitive; I- Intermediate; R- Resistant
[2] = system: Salmonella Enteritidis strains; assay type: cell-based; note: key: S- Sensitive; I- Intermediate; R- Resistant
EAEC strains [3] = experiment: Antibiotic susceptibility testing; assay type: cell-based, enteroaggregative Escherichia coli; note: key: S- Sensitive; I- Intermediate; R- Resistant
Description: Supplement 13099_2021_443_MOESM1_ESM.docx, table 1: Supplementary Table 1. Antibiotic susceptibility pattern of EAEC and NTS strains under study | column: Antibiotic Susceptibility testing

EAEC strains [4] = experiment: MIC values of antibiotics; assay type: cell-based, enteroaggregative Escherichia coli

Molecule	Antibiotic Susceptibility testing ([1]; strain ST1)	Antibiotic Susceptibility testing ([1]; strain ST2)	Antibiotic Susceptibility testing ([1]; strain ST3)	Antibiotic Susceptibility testing ([2]; strain S1)	Antibiotic Susceptibility testing ([2]; strain S2)	Antibiotic Susceptibility testing ([2]; strain S3)	Antibiotic Susceptibility testing (EAEC strains [3]; strain E1)	Antibiotic Susceptibility testing (EAEC strains [3]; strain E2)	Antibiotic Susceptibility testing (EAEC strains [3]; strain E3)	other results
Cc1nnc(SCC2=C(C(=O)O)N3C(=O)[C@@H](NC(=O)Cn4cnnn4)[C@H]3SC2)s1 [CZ]	S	S	S	–	–	–	–	–	–	–
C[C@H]1[C@H](NC(=O)/C(=N\OC(C)(C)C(=O)O)c2csc(N)n2)C(=O)N1S(=O)(=O)O [AT, Aztreonam]	–	–	–	S	S	S	–	–	–	–
COCC1=C(C(=O)O)N2C(=O)[C@@H](NC(=O)/C(=N\OC)c3csc(N)n3)[C@H]2SC1 [CPD, Cefpodoxime]	–	–	–	R	R	R	–	–	–	–
CO/N=C(\C(=O)N[C@@H]1C(=O)N2C(C(=O)O)=C(COC(C)=O)CS[C@H]12)c1csc(N)n1 [CTR, Cefotaxime]	S	R	S	–	–	–	S	R	R	MIC (EAEC strains [4]; Escherichia coli, strain E2): > 240 µM; MIC Values, class symbol printed instead of a number (EAEC strains [4]; strain E1): S; MIC (EAEC strains [4]; strain E3): >240 µM
CC1(C)S[C@@H]2[C@H](NC(=O)[C@H](N)c3ccccc3)C(=O)N2[C@H]1C(=O)O [AMP]	R	R	R	R	R	R	R	R	R	MIC (EAEC strains [4]; strain E1): >240 µM; MIC (EAEC strains [4]; strain E2): >240 µM; MIC (EAEC strains [4]; strain E3): >240 µM
C[C@@H](O)[C@H]1C(=O)N2C(C(=O)O)=C(SCCN=CN)C[C@H]12 [IMI, Imipenem]	–	–	–	–	–	–	S	S	S	MIC Values, class symbol printed instead of a number (EAEC strains [4]; strain E1): S; MIC Values, class symbol printed instead of a number (EAEC strains [4]; strain E2): S; MIC Values, class symbol printed instead of a number (EAEC strains [4]; strain E3): S
Cc1cc(NS(=O)(=O)c2ccc(N)cc2)no1 [SXT, Sulfamethoxazole]	–	–	–	–	–	–	R	S	R	–
CO/N=C(\C(=O)N[C@@H]1C(=O)N2C(C(=O)O)=C(COC(C)=O)CS[C@H]12)c1csc(N)n1 [CTX]	–	–	–	S	S	S	–	–	–	–
Nc1ccc(S(=O)(=O)Nc2ncccn2)cc1 [SD, Sulfadiazine]	–	–	–	–	–	–	–	–	–	Antibiotic Susceptibility testing [2]: R
Colistin sulphate	–	–	–	–	–	–	S	S	S	MIC Values, class symbol printed instead of a number (EAEC strains [4]; strain E1): S; MIC Values, class symbol printed instead of a number (EAEC strains [4]; strain E2): S; MIC Values, class symbol printed instead of a number (EAEC strains [4]; strain E3): S
CC(C)(O/N=C(\C(=O)N[C@@H]1C(=O)N2C(C(=O)[O-])=C(C[n+]3ccccc3)CS[C@H]12)c1csc(N)n1)C(=O)O [CAZ]	S	R	I	–	–	–	–	–	–	–
CO/N=C(\C(=O)N[C@@H]1C(=O)N2C(C(=O)[O-])=C(C[N+]3(C)CCCC3)CS[C@H]12)c1csc(N)n1 [CPM]	S	S	S	S	S	S	–	–	–	–
CCN1CCN(C(=O)N[C@@H](C(=O)N[C@@H]2C(=O)N3C(C(=O)O)=C(CSc4nnnn4C)CS[C@H]23)c2ccc(O)cc2)C(=O)C1=O [CPZ, Cefoperozone]	–	–	–	S	S	S	–	–	–	–
C[C@@H](O)[C@H]1C(=O)N2C(C(=O)O)=C(SCCN=CN)C[C@H]12 [IPM]	S	S	S	–	–	–	–	–	–	–
NC[C@H]1O[C@H](O[C@H]2[C@H](O)[C@@H](O[C@H]3O[C@H](CO)[C@@H](O)[C@H](N)[C@H]3O)[C@H](N)C[C@@H]2N)[C@H](O)[C@@H](O)[C@@H]1O [K, Kanamycin]	–	–	–	R	S	S	–	–	–	–
O=C1CN(/N=C/c2ccc([N+](=O)[O-])o2)C(=O)N1 [NIT, Nitrofurantoin]	–	–	–	–	–	–	–	–	–	Antibiotic Susceptibility testing [2]: S and R
CCn1cc(C(=O)O)c(=O)c2ccc(C)nc21 [NA, Nalidicic Acid]	R	R	I	R	R	R	–	–	–	–
C[C@H]1COc2c(N3CCN(C)CC3)c(F)cc3c(=O)c(C(=O)O)cn1c23 [LE, Levofloxacin]	R	R	I	–	–	–	–	–	–	–
O=C(O)c1cn(C2CC2)c2cc(N3CCNCC3)c(F)cc2c1=O [CIP]	R	R	R	–	–	–	S	R	R	MIC (EAEC strains [4]; strain E2): 120 µM (≈ 39.8 µg/mL); MIC (EAEC strains [4]; strain E3): 60 µM (≈ 19.9 µg/mL)
CC[C@H]1OC(=O)[C@H](C)[C@@H](O[C@H]2C[C@@](C)(OC)[C@@H](O)[C@H](C)O2)[C@H](C)[C@@H](O[C@@H]2O[C@H](C)C[C@H](N(C)C)[C@H]2O)[C@](C)(O)C[C@@H](C)CN(C)[C@H](C)[C@@H](O)[C@]1(C)O [AZM, Azithromycin]	–	–	–	–	–	–	–	–	–	Antibiotic Susceptibility testing [2]: S
C[C@@H](O)[C@H]1C(=O)N2C(C(=O)O)=C(S[C@@H]3CN[C@H](C(=O)N(C)C)C3)[C@H](C)[C@H]12 [MRP, Meropenem]	–	–	–	S	S	S	–	–	–	–
Cc1noc(NS(=O)(=O)c2ccc(N)cc2)c1C [SF, Sulphafurazole]	–	–	–	S	R	S	–	–	–	–
CO[C@@]1(NC(=O)Cc2cccs2)C(=O)N2C(C(=O)O)=C(COC(N)=O)CS[C@@H]21 [CX]	–	–	–	–	–	–	–	–	–	Antibiotic Susceptibility testing [2]: S; Antibiotic Susceptibility testing [1]: S and R and I
O=C(N[C@H](CO)[C@H](O)c1ccc([N+](=O)[O-])cc1)C(Cl)Cl [C, Chloramphenicol]	R	R	R	R	S	S	S	S	S	MIC Values, class symbol printed instead of a number (EAEC strains [4]; strain E1): S; MIC Values, class symbol printed instead of a number (EAEC strains [4]; strain E2): S; MIC Values, class symbol printed instead of a number (EAEC strains [4]; strain E3): S
CN(C)[C@@H]1C(O)=C(C(N)=O)C(=O)[C@@]2(O)C(O)=C3C(=O)c4c(O)cccc4[C@@](C)(O)[C@H]3C[C@@H]12 [TE]	R	R	R	R	S	S	R	R	R	MIC (EAEC strains [4]; strain E1): 60 µM (≈ 26.7 µg/mL); MIC (EAEC strains [4]; strain E2): 2 µM (≈ 0.889 µg/mL); MIC (EAEC strains [4]; strain E3): 30 µM (≈ 13.3 µg/mL)
